From patent publication US20120078527A1, “KIT AND METHOD FOR PREDICTING SENSITIVITY OF GASTRIC CANCER PATIENT TO ANTI-CANCER AGENT” (SAMSUNG ELECTRONICS CO., LTD., priority 2010, published 2012)

System: advanced (terminal) gastric cancer patients
Assay: Change in tumor size after cisplatin-based chemotherapy in gastric cancer patients
Type: in vivo, human
Details: population of 151 advanced (terminal) gastric cancer patients; cisplatin-based chemotherapy per NCCN guidelines after palliative surgical resection; judged by changes in tumor size
Procedure: A population of 151 advanced (terminal) gastric cancer patients who were treated with cisplatin-based chemotherapy (in Samsung Medical Center, Seoul, Korea) after palliative surgical resection were selected to test for sensitivity to the anti-cancer agent. That is, the anti-cancer agent (cisplatin) was administered to the patients according to National Comprehensive Cancer Network (NCCN) guidelines, and changes in tumor size after the administration of the anti-cancer agent were measured to determine whether the anti-cancer therapy was effective. Then, the patients were grouped into two groups: one group of 103 patients for which the anti-cancer therapy was effective (responders), and the other group of 48 patients for which the anti-cancer therapy was not effective (nonresponders). In addition, to identify SNPs associated with response or nonresponse to the anti-cancer agent, DNA of each of the patients was extracted from gastric tumor tissue removed from the patient using QIAamp DNA Mini and blood Mini kits.

Compound: N.N.[Cl][Pt][Cl] [cisplatin]
- patients for which the anti-cancer therapy was effective (responders): 103 patients
- patients for which the anti-cancer therapy was not effective (nonresponders): 48 patients
